Legend:
Type in all cases: in vivo
Plutella xylostella = assay: Field test of insecticidal effect on Plutella xylostella (foliar application, Chinese kale); details: flubendiamide 11.3 and/or tolfenpyrad 60 g a.i./ha; for Control effect (%) 4DAT5 / Number of larvae per plant 4DAT5: 4 days after the 5th treatment; for Number of larvae per plant 4DAT5 / Number of larvae per plant 4DAT6: 4-day intervals, Chinese kale field; for Control effect (%) 4DAT6 / Number of larvae per plant 4DAT6: 4 days after the 6th treatment
Protocol: (§1) In an experimental Chinese kale (Brassica oleracea var. acephala) field (sized 4 m×5 m and planted with 800 plants per plot), foliar application was conducted with a water-diluted agrochemical solution (an amount equivalent to 750 L/ha) containing a predetermined dose of a flubendiamide 20% water-dispersible granule and/or a predetermined dose of a tolfenpyrad 15% emulsifiable concentrate at 4-day intervals, 8 times in total. In plots of Plutella xylostella or Spodoptera litura, 20 plants per plot were chosen at random, the number of surviving larvae was measured before the agrochemical treatment, at 4 days after the 5th agrochemical treatment and at 4 days after the 6th agrochemical treatment. With reference to the number of larvae before the agrochemical treatment, the control effect was calculated according to the formula shown below. In addition, the expected value for the control effect of the mixed use was calculated according to Colby's equation shown below. […] As for plots of Spodoptera exigua, the calculation was performed based on the measurements at 4 days after the 7th agrochemical treatment and at 4 days after the 8th agrochemical treatment.
(§2) Control effect=100−{(Ta×Cb)/(Tb×Ca)}×100
(§3) Ta=the number of larvae after the agrochemical treatment in a treatment plot
(§4) Tb=the number of larvae before the agrochemical treatment in a treatment plot
(§5) Ca=the number of larvae after the agrochemical treatment in a non-treatment plot
(§6) Cb=the number of larvae before the agrochemical treatment in a non-treatment plot
(§7) E(expected value)=(X+Y)−(X−Y/100)
(§8) X=the control effect of flubendiamide alone
(§9) Y=the control effect of tolfenpyrad alone
(§10) In each table, 4DAT5, 4DAT6, 4DAT7 and 4DAT8 are as defined below, and the a. i. stands for active ingredient.
(§11) 4DAT5: the measurement at 4 days after the 5th agrochemical treatment
(§12) 4DAT6 the measurement at 4 days after the 6th agrochemical treatment

Spodoptera exigua = assay: Field test of insecticidal effect on Spodoptera exigua (foliar application, Chinese kale); details: flubendiamide 11.3 and/or tolfenpyrad 60 g a.i./ha; for Control effect (%) 4DAT7 / Number of larvae per plant 4DAT7: 4 days after the 7th treatment; for Number of larvae per plant 4DAT7 / Number of larvae per plant 4DAT8: 4-day intervals, Chinese kale field; for Control effect (%) 4DAT8 / Number of larvae per plant 4DAT8: 4 days after the 8th treatment
Protocol: as §1, §2, §3, §4, §5, §6, §7, §8, §9, §10
4DAT7 the measurement at 4 days after the 7th agrochemical treatment
4DAT8 the measurement at 4 days after the 8th agrochemical treatment

Spodoptera litura = assay: Field test of insecticidal effect on Spodoptera litura (foliar application, Chinese kale); details: flubendiamide 11.3 and/or tolfenpyrad 60 g a.i./ha; for Control effect (%) 4DAT5 / Number of larvae per plant 4DAT5: 4 days after the 5th treatment; for Number of larvae per plant 4DAT5 / Number of larvae per plant 4DAT6: 4-day intervals, Chinese kale field; for Control effect (%) 4DAT6 / Number of larvae per plant 4DAT6: 4 days after the 6th treatment
Protocol: as §1, §2, §3, §4, §5, §6, §7, §8, §9, §10, §11, §12

Cc1cc(C(F)(C(F)(F)F)C(F)(F)F)ccc1NC(=O)c1cccc(I)c1C(=O)NC(C)(C)CS(C)(=O)=O [Flubendiamide, 3-iodo-N′-(2-mesyl-1,1-dimethylethyl)-N-{4-[1,2,2,2-tetrafluoro-1-(trifluoromethyl)ethyl]-o-tolyl}phthalamide]
Control effect (%) 4DAT5 (Plutella xylostella): 53.5%
Number of larvae per plant 4DAT5 (Plutella xylostella): 0.24
Control effect (%) 4DAT6 (Plutella xylostella): 70.0%
Number of larvae per plant 4DAT6 (Plutella xylostella): 0.13
Control effect (%) 4DAT7 (Spodoptera exigua): 37.6%
Number of larvae per plant 4DAT7 (Spodoptera exigua): 0.03
Control effect (%) 4DAT8 (Spodoptera exigua): 62.2%
Number of larvae per plant 4DAT8 (Spodoptera exigua): 0.04
Control effect (%) 4DAT5 (Spodoptera litura): 3.9%
Number of larvae per plant 4DAT5 (Spodoptera litura): 0.43
Control effect (%) 4DAT6 (Spodoptera litura): 37.8%
Number of larvae per plant 4DAT6 (Spodoptera litura): 0.31

CCc1nn(C)c(C(=O)NCc2ccc(Oc3ccc(C)cc3)cc2)c1Cl [Tolfenpyrad, 4-chloro-3-ethyl-1-methyl-N-[4-(p-tolyloxy)benzyl]pyrazole-5-carboxamide]
Control effect (%) 4DAT5 (Plutella xylostella): 29.4%
Number of larvae per plant 4DAT5 (Plutella xylostella): 0.38
Control effect (%) 4DAT6 (Plutella xylostella): 58.0%
Number of larvae per plant 4DAT6 (Plutella xylostella): 0.19
Control effect (%) 4DAT7 (Spodoptera exigua): 0%
Number of larvae per plant 4DAT7 (Spodoptera exigua): 0.06
Control effect (%) 4DAT8 (Spodoptera exigua): 0%
Number of larvae per plant 4DAT8 (Spodoptera exigua): 0.13
Control effect (%) 4DAT5 (Spodoptera litura): 0%
Number of larvae per plant 4DAT5 (Spodoptera litura): 0.25
Control effect (%) 4DAT6 (Spodoptera litura): 0%
Number of larvae per plant 4DAT6 (Spodoptera litura): 0.53

Source: patent publication US20140148493A1, “Agricultural and Horticultural Insecticide Composition and Method for Using the Same” (NIHON NOHYAKU CO., LTD., priority 2011, published 2014)
